Experiments:
HL-60 cells = experiment: Lysosomal inhibition assay with small molecule prodrugs; format: cell-based; details: HL-60, NH4Cl at 30 mM
Protocol: Assays to assess the effect of lysosomal activity on prodrugs were performed as follows: HL-60 cells were plated into 96 well plates at a concentration of 2.5×10^5 cells/mL in 180 μL media. Cells were treated with 10 μL of a stock of NH4Cl in PBS (to obtain an in-plate concentration of 3 or 30 mM), 10 μL of a dilution of a DMSO stock of E64d in PBS (to obtain an in-plate concentration of 30 μM), PBS only, or a dilution of DMSO in PBS. Cells were incubated for 30 min. Following this, 10 μL of a stock of test compound made by dilution of a DMSO stock into media was added. DMSO was present in-plate at a maximum of 0.2%. Cells were incubated overnight for 16 h. Following incubation, media was replaced with media containing CellTiter-Blue (Promega) in 1:4 dilution and the plates were incubated for 6 h. The fluorescence of the plates was recorded (excitation 555 nm, emission 585 nm, MiniMax i3x Reader, Molecular Devices). Cell viability was calculated by division of the fluorescence intensity of treated wells by that of the calculated average fluorescence intensity of the relevant negative control wells. Values and reported error bars represent the mean and standard error of the mean of three triplicate repeats for each concentration tested.

[1] = test system: HL-60 (leukaemia cell line); experiment: Viability assay (CellTiter-Blue), HL-60; format: cell-based; details: Homo sapiens
Protocol: Assays assessing cytotoxicity of β-lapachone and derivatives were performed by CellTiter-Blue assay (Promega) according to the manufacturer's instructions. Briefly, adherent cancer-cell lines were plated at 20,000 cells/well in 96 well plates or suspension cell lines were plated at a concentration of 2×10^5 cells/mL in 24 well plates. Compound stocks in media were made by dilution of DMSO stocks containing the compound of interest to obtain a final in-plate DMSO concentration of only 0.1%. Incubation was performed for 48 h. Following incubation, media was replaced with media containing CellTiter-Blue (Promega) in 1:10 dilution and the plates were incubated for 1.5-4 h. The fluorescence of the plates was recorded (excitation 555 nm, emission 585 nm, […] Reader, Molecular Devices). Cell viability was calculated by division of the fluorescence intensity of treated wells by that of the calculated average fluorescence intensity of replicate negative control wells containing cells with 0.1% DMSO only. Values and reported error bars represent the mean and standard error of the mean of three triplicate repeats for each concentration tested.

SkBr-3 = experiment: Toxicity with/without β-glucuronidase, SkBr-3; format: cell-based; details: Homo sapiens, SK-BR-3; SkBr-3; read-out: IC50 β-lapachone, 1
Protocol: (§1) Assays assessing cytotoxicity of β-lapachone and derivatives were performed by CellTiter-Blue assay (Promega) according to the manufacturer's instructions. Briefly, adherent cancer-cell lines were plated at 20,000 cells/well in 96 well plates or suspension cell lines were plated at a concentration of 2×10^5 cells/mL in 24 well plates. Compound stocks in media were made by dilution of DMSO stocks containing the compound of interest to obtain a final in-plate DMSO concentration of only 0.1%. Incubation was performed for 48 h. Following incubation, media was replaced with media containing CellTiter-Blue (Promega) in 1:10 dilution and the plates were incubated for 1.5-4 h. The fluorescence of the plates was recorded (excitation 555 nm, emission 585 nm, MiniMax i3x Reader, Molecular Devices).
(§2) Cell viability was calculated by division of the fluorescence intensity of treated wells by that of the calculated average fluorescence intensity of replicate negative control wells containing cells with 0.1% DMSO only. Values and reported error bars represent the mean and standard error of the mean of three triplicate repeats for each concentration tested. IC50 values were calculated using GraphPad Prism 8 software.
(§3) The potential of compound 37a, glucuronide-PHB-BL, as a prodrug was investigated. As discussed above, at physiological pH the compound has a relatively slow-release rate. Toxicity of Gluc-PHB-BL 37a was tested against a range of cell lines with and without added β-glucuronidase. Addition of the enzyme mimics conditions of the solid tumour environment.

HEK-293T = experiment: Toxicity with/without β-glucuronidase, HEK-293T; format: cell-based; details: Homo sapiens, read-out: IC50 β-lapachone, 1
Protocol: as §1, §2, §3

MOLM-13 = experiment: Toxicity with/without β-glucuronidase, MOLM-13; format: cell-based; details: Homo sapiens, MOLM-13; read-out: IC50 β-lapachone, 1
Protocol: as §1, §2, §3

5-LO = molecular target: T1, 5-LO (Homo sapiens, UniProt P09917); details: previous work, Chem. Sci. 2018; cited from earlier work
T1 sequence (P09917 1-674): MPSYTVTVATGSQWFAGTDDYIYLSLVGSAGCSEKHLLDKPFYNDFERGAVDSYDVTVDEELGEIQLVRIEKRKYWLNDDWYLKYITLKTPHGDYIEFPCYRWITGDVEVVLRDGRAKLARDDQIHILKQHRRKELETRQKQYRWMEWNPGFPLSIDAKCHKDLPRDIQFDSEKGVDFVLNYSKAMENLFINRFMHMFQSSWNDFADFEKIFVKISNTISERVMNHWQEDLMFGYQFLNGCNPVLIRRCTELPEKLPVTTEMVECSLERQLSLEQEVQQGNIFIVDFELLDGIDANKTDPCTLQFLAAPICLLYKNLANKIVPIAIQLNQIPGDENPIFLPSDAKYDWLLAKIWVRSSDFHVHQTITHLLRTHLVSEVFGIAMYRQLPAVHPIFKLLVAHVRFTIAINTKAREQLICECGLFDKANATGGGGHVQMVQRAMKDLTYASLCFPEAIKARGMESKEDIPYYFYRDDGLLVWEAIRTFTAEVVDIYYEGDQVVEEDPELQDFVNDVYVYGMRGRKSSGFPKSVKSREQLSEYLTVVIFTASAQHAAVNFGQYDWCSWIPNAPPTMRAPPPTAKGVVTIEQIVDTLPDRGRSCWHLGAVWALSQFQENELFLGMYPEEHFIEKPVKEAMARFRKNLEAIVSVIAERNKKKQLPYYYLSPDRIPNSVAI

IC50 [1]: 1400 nM
Compound: CC1(C)CCC2=C(O1)c1ccccc1C(=O)C2=O [Compound 1, β-lapachone, reference compound]
toxicity with NH4Cl (HL-60 cells): increase in toxicity
IC50 (SkBr-3): 2750 nM
IC50 (HEK-293T): 2910 nM
IC50 (MOLM-13): 12100 nM
inhibition of 5-LO (5-LO): strongly inhibits
